# No end group written: not given here.
# Experiments:
# [1] = system: lens epithelial cell culture; details: range required for effective activity; cited from earlier work
# [2] = Degradation of H2O2 by microperoxidase (ferroammonium sulfate/thiocyanate H2O2 assay); format: biochemical
# Protocol: (FIG. 1A) Effect of cofactors on μPx-11 degradation of H2 O2. 300 μM hydrogen peroxide (H2 O2) was incubated with μPx-11 in 50 mM phosphate buffer, pH 7.0 at 25° C. in 1 ml. At indicated times, 50 μl aliquots were removed for H2 O2 assay as described in the Materials and Methods section. 50 mM phosphate buffer, pH 7.0 buffer+500 μM NADPH, buffer+1 mM ascorbate (Asc), buffer+3 μM (μPx-11), prior solution+500 μM NADPH, as the previous solution but with 1 mM Asc rather than NADPH. 20 μM μPx-11 in 50 mM phosphate buffer pH 7.0. The results represent the average±S.D. of 3 experiments in most cases.
# (FIG. 1B) Stability of μPx-11 as measured by ability to degrade H2 O2. 300 μM H2 O2 in 2 ml of 50 mM phosphate buffer, pH. […] The levels of certain components (H2 O2, NADPH or Asc) were brought back to estimated starting concentrations based on prior experiments and the H2 O2 decay again measured. […]
# (FIG. 1C) Concentration dependence of μPx-11 in the presence of Asc. […] The data is expressed as nmoles H2 O2 degraded per ml per minute per nmole μPx-11 in 1 ml. The initial H2 O2 degradation rate measured in the first minute is given. […]
# H2 O2 was assayed by the method of Hildebrandt et al. (1978), as modified by Spector et al. (1993a) and is based on the oxidation of ferroammonium sulfate in the presence of potassium thiocyanate. […] Hydroxyl radical was determined as previously described (Spector et al., 1993a). […]
Molecule,toxicity [1],effect of H2O2 on peroxidase ([2]; absence of Asc),ability to degrade H2O2 compared with μPx-11 ([2]; presence of 1 mM Asc)
O=c1c2ccccc2[se]n1-c1ccccc1 [Ebselen],toxic in the μM (micromolar) range,,
"CN(C)Cc1ccccc1[Se][Se]c1ccccc1CN(C)C [2,2'diselenobis (N,N dimethylamino)methyl benzene]",toxic in the μM (micromolar) range,,
"μPx-8: heme-peptide with the cytochrome C peptide segment containing residue 14 to 21 (CAQCHTVE; cysteine pairing not given here; also: heme-peptide, heme attachment not placed; UniProt P00004 15-22, looked up, fragment)",,inactivated,more active than μPx-11

# From patent US6013623A, “Use of heme-peptides to prevent or retard disease associated with oxidative stress” (The Trustees of Columbia University in the City of New York, priority 1997, dated 2000)
